Source: patent US11814681B2 (priority 2017, dated 2023)
Where “and” joins values, the source holds several entries; their conditions need not be identical. Equal entries are not always repeated.

Key:
[1] = in vivo; cited from earlier work
[2] = tested on: patients (Met allele carriers, Val/Val); design: species or system human; details: in vivo
[3] = tested on: patients (Met allele carriers, Val/Val); details: in vivo; cited from earlier work
[4] = human, in vivo
[5] = human, in vivo; remark: listed apart in the source
[6] = human, in vivo; remark: listed apart in the source
[7] = tested on: schizophrenia patients; details: human, in vivo

Row | Compound | effect on circulating proline levels [1] | patients showing improvement in negative symptoms after treatment onset [2] | blood level considered the lower end of the therapeutic range [3] | fasting plasma proline, mean ± SD [4] | fasting L-serine level [5] | fasting glycine level [5] | fasting plasma proline versus patients who did not receive the drug [6] | effect on circulating proline [1] | difference in SANS total score, Val/Val versus Val/Met and Met/Met (regression coefficient) [7] | β (95% CI), bivariate association of treatment with total SANS score [7]
1 | CCO [Ethanol] | increases | – | – | – | – | – | – | – | – | –
2 | CCCC(CCC)C(=O)O [VPA, 2-propylpentanoic acid] | – | 2 out of 9 and 5 out of 7 | 50 µg/mL | 299.29±94.76 | 117 µM | 361 µM | significantly higher | upregulates | −12.17 | −0.578 (−7.157, 6.001)
